Earlier results in paper PMC10046020, “In Silico Screening and Optimization of Cell-Penetrating Peptides Using Deep Learning Methods” (Biomolecules, 2023).

Conditions: Spreadsheet S1: 150 CPP and 150 non-CPP peptides collected from CellPPD, MLCPP, CPPsite 2.0, Lifetein and other publications; cited from earlier work
Description: Supplement biomolecules-13-00522-s001.zip/biomolecules-2162660_Supplementary Spreadsheets S1 Test Set.csv, table | column: class || Supplement biomolecules-13-00522-s001.zip/biomolecules-2162660_Supplementary Spreadsheets S2 Train Set.csv, table | column: class

Row | Substance | class (CPP / Non-CPP), Test Set
1 | PKKKRKVRRRRRRRPQMQQNVFQYPGAGMVPQGEANF | CPP
2 | MIRIAALNASSTIEDDHEGSFKSHKIQTKEAQEAE | Non-CPP
3 | STGKANKITITNDKGRLSK | CPP
4 | FVPFFTHSELQKIREKERNKGQ | Non-CPP
5 | DAATARGRGRSAASRPTERPRAPARSASRPRRPVD | CPP
6 | TAAGDARANAVAKAGLHDLNIETDTERNH | Non-CPP
7 | LLKTTALLKTTALHKTTA | Non-CPP
8 | CKYGRKKRRQRRR | CPP
9 | NAGGWFSSWFFSNTANEDQDDMLPSTSAAAGETNYARN | Non-CPP
10 | LNSLGYLLGKALAALAKKIL | Non-CPP
11 | NWVTMKDSADSIDHECPRYFDTCERSCKISE | Non-CPP
12 | CPLDQFECGGDEPG | Non-CPP
13 | FVPIFTHSELQKIREKERNKGQ | Non-CPP
14 | KGRKKRRQRRRPPQ | CPP
15 | QKVAFCDCCYDDIYTVEFKGCIFRPK | Non-CPP
16 | LRHHLRHLLRHLRHLLRHLRHHLRHLLRH | CPP
17 | TRQARRNRRRWRERQR | CPP
18 | GGTSSSDAQQSLQSFWPRVM | Non-CPP
19 | WELVVAYGRKKRRQRRR | CPP
20 | MAPTKRKGSCPGAAPNKKP | CPP
21 | ELVVLGKLYGRKKRRQRRR | CPP
22 | LIRLWSHLIHIWFQNRRLKWKKKC | CPP
23 | PVVHLTLRQEGDDFSR | Non-CPP
24 | GWTNLSAGCLLGPPPGFSPFR | Non-CPP
25 | GWTNLSAGYLLGPPPGFSPFS | Non-CPP
26 | QQPFVQQQQPFVQQ | Non-CPP
27 | GWTLHSAGYLLGPHAI | Non-CPP

Row | Substance | class (CPP / Non-CPP), Test Set
28 | FKCRRWQWRMKKLGKRSKNKGFKEQAKSLLKWILD | CPP
29 | RRLTLRQLLGLGSRRRRRSR | CPP
30 | ACRGRGRRCGSGRRSCG | CPP
31 | FLPVLAGIAAKVVPALFCKITKKC | Non-CPP
32 | DFDMLRCMLGRVYRPCWQV | Non-CPP
33 | LVVLGKLYGRKKRRQRRR | CPP
34 | GFFTLIKAANKLINKTVNKEAGKGGLEIMA | Non-CPP
35 | FFLIPKGRRRRRRRRR | CPP
36 | KKLSECLKRIGVELDS | Non-CPP
37 | TERQIKIWFQNRCMK | Non-CPP
38 | PLGPVVHKCCPGFGGLQWLPLLWNWYQNMWGN | Non-CPP
39 | GWTNLSAGYLLGPPPGFSPFR | Non-CPP
40 | KKLSLCLKRIGDELDS | Non-CPP
41 | GCCSHPACNVNNPHICG | Non-CPP
42 | LSNTLAELYVREHLR | Non-CPP
43 | IHSHWFVMVLKGKAARQRDDLWTHPCFPS | Non-CPP
44 | AKRGARSTA | CPP
45 | FLPLFLPKIICVITKKC | Non-CPP
46 | LLKHTALLKTTALLKTTA | Non-CPP
47 | LMLRTVGYKFHCSLPVNAVHCSLK | Non-CPP
48 | RQIKIWFQNRRMKWKKGG | CPP
49 | CRKKRRQRRR | CPP
50 | ACRGRGRGCGSGSGSCG | CPP
51 | GRKKRRQ | CPP
52 | DKLGVWFIWANNASVFHAYHLKC | Non-CPP
53 | KMTRAQRRAAARRNRWTAR | CPP
54 | ACRDRFRRCPADRRLCG | CPP

Row | Substance | class (CPP / Non-CPP), Test Set
55 | FTFGGGYVYFEEYAY | Non-CPP
56 | LKKLLKLLKKLLKLAG | CPP
57 | ACSGSGSGCGSGSGSCGRRRRRRRR | CPP
58 | KLALKLACKALKAA | Non-CPP
59 | RKGWFKAMKSIAKFIAKEKLKEHL | CPP
60 | GWTLNSAGYLLEPHAI | Non-CPP
61 | ILRRRIRKQAHFHSK | Non-CPP
62 | VTQADVGSALANLKIPGVGS | Non-CPP
63 | CLGSGEQCVRDTSCCSMSCTNNICF | Non-CPP
64 | PKKGSKKAVTKAQKKDGA | CPP
65 | YTPNDITLNNSVALDPIDISIELNKAKSDLEESKE | Non-CPP
66 | TAQVFFNVYKKAKPN | Non-CPP
67 | ARFSNPGVWSKVAADIFNMALDTALA | Non-CPP
68 | AGCKNFFWKMFTSC | Non-CPP
69 | RPEGQNYTEGIAVVF | Non-CPP
70 | LNSAGYLLGKPKALAALAK | Non-CPP
71 | HDEFERHAEGEFTSDVSSYLEGQAAKEFIAWLVKGR | Non-CPP
72 | YTMQMLLEIHRKNW | Non-CPP
73 | LALALALALALALAKLAKLAKLAKLAKIKKIKKKIK | CPP
74 | AGYLLGHINLHHLAHLHHIL | CPP
75 | YMVGLCDYHILYSGWGQMDWHPEPHFYAWMYR | Non-CPP
76 | AHALCLTERQIKSNRRMKWKKEN | Non-CPP
77 | FLPLLAGVVANFLPQIICKIARKC | Non-CPP
78 | APVTGAHMAYVDYWVPCQFTECSGEYVTEEYRKA | Non-CPP
79 | HADGLFTSGYSKLLGQLSARRYLESLI | Non-CPP
80 | MNASQVAGEEAPQSGHSVKVVLVGDGGCGKTSLMMVF | Non-CPP

Same assay, conditions: Spreadsheet S2: peptides collected from CellPPD, MLCPP, CPPsite 2.0, Lifetein and other publications; cited from earlier work

Row | Substance | class (CPP / Non-CPP), Train Set
81 | RRRRRRRGGIYLATALAKWALKQ | CPP
82 | IYLATALAKWALKQGGRRRRRRR | CPP
83 | IYLATALAKWALKQGFGGRRRRRRR | CPP

Same assay, conditions: cited from earlier work

Row | Substance | class (CPP / Non-CPP), Test Set
84 | LIKRKRLI | Non-CPP
85 | KRKRWHW | CPP
86 | MVMEMRNF | Non-CPP
87 | RRRRRRRRRR | CPP
88 | RRLLRRLRR | CPP
89 | RRRRWWWW | CPP
90 | RRRRRRRRGC | CPP
91 | NTCTWLKYHS | CPP
92 | YTFGLKTSFNVQ | CPP
93 | VQQQQPLGQQQP | Non-CPP
94 | SNGHACRPW | Non-CPP
95 | RKKNPNCRR | CPP
96 | VIVYIVVKDASSK | Non-CPP
97 | VVLYKYRCYKVI | CPP
98 | SARRRRRREW | CPP
99 | CYFQNCPRG | Non-CPP
100 | WRWKKKKA | CPP
101 | YRDRFAFQPH | CPP
102 | NYQWRCKNQN | CPP
103 | EGGGPQWAVGHFM | Non-CPP
104 | NYRWRCK | CPP
105 | VDFEEAYLAVS | Non-CPP
106 | NYRWRCKN | CPP
107 | QNLGNDWAVGHLM | Non-CPP
108 | NTGTWLKYHS | CPP
